Source: PMC2713788 (Experimental eye research, 2009)
No end group written: not given here.

How the values were obtained:
[1] = in vitro; format: in vitro ADME; details: human, cells or culture medium, bradykinin remaining in media
[2] = in vitro; format: in vitro ADME; details: human, cells or culture medium, bradykinin present in media

For RPPGFSPFR [bradykinin], the remaining at 0.5 h, 500 pg/ml [1] was 51 ± 5%, the remaining at 1 h, 500 pg/ml [1] was 15 ± 3% and the remaining at 1.5 h, 500 pg/ml [1] was 9 ± 3%. It also gave a remaining at 0.5 h, 500 pg/ml [2] of 73 ± 3% and a remaining at 1 h, 500 pg/ml [2] of 52 ± 3%.
